The text below walks through data of ChEMBL document CHEMBL4806959, “Antagonistic peptides for frizzled-1 and frizzled-2” (2015).

The target of assay [1] is Frizzled-1 (Homo sapiens) (UniProt Q9UP38). The experiment in a line: Antagonist activity at Wnt3a-stimulated frizzled-1 (unknown origin) expressed in human HEK293superTOP flash cells incubated for 24 hrs by luciferase reporter gene assay. Type of assay: functional, cell-based. The conditions noted are these: HEK293. For orientation: Reporter assays use an easily measured gene product as a stand-in for the process of interest.
Sequence of Frizzled-1 (Homo sapiens) (Q9UP38 70-647 limits assumed): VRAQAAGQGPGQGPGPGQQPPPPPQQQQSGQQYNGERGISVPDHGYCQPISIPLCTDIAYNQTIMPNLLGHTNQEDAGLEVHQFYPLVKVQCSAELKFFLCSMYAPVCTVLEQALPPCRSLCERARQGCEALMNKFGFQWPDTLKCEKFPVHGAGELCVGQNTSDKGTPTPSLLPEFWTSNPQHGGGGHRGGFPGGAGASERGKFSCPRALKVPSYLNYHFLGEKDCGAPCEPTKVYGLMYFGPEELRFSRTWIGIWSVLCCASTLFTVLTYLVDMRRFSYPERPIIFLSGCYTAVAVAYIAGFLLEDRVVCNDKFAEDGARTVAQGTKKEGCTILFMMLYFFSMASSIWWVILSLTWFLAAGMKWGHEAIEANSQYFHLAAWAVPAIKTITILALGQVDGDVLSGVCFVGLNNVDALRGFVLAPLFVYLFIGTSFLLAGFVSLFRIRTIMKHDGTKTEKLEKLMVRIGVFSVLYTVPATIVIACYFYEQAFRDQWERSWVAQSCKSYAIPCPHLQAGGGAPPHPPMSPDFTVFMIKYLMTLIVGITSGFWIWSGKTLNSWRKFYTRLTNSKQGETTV

Assay [2] has as its target T1, Frizzled-2 (Homo sapiens, UniProt Q14332). The experiment in a line: Agonist activity at frizzled-2 (unknown origin) expressed in human HEK293superTOP flash cells by luciferase reporter gene assay. Type of assay: functional, cell-based. The conditions noted are these: hek293.
Target sequence in this assay (Q14332 whole entry): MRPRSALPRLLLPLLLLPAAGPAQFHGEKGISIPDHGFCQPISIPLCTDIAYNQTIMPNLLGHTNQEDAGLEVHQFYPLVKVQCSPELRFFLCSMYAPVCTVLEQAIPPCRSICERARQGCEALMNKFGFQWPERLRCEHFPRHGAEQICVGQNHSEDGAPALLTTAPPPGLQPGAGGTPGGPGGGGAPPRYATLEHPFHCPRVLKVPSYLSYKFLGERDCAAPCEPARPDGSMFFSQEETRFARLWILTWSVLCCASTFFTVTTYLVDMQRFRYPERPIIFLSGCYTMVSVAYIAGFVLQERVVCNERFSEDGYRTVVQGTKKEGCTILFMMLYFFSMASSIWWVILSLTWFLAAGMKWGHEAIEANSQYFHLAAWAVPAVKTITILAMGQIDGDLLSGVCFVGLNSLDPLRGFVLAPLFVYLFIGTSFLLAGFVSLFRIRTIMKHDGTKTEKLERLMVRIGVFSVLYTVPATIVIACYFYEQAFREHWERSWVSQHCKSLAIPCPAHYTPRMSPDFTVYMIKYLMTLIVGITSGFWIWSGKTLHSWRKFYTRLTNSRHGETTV
The target in assay [3] is Frizzled-1 (Homo sapiens) (UniProt Q9UP38). The experiment in a line: Agonist activity at frizzled-1 (unknown origin) expressed in human HEK293superTOP flash cells by luciferase reporter gene assay. In kind it is functional, cell-based. As to conditions: HEK293.
Assay [4] deals with T1, Frizzled-2. The assay is described as follows: Antagonist activity at Wnt3a-stimulated frizzled-2 (unknown origin) expressed in human HEK293superTOP flash cells incubated for 24 hrs by luciferase reporter gene assay. Type of assay: functional, cell-based. The conditions noted are these: HEK293.
Target sequence in this assay (Q14332 24-565 limits assumed): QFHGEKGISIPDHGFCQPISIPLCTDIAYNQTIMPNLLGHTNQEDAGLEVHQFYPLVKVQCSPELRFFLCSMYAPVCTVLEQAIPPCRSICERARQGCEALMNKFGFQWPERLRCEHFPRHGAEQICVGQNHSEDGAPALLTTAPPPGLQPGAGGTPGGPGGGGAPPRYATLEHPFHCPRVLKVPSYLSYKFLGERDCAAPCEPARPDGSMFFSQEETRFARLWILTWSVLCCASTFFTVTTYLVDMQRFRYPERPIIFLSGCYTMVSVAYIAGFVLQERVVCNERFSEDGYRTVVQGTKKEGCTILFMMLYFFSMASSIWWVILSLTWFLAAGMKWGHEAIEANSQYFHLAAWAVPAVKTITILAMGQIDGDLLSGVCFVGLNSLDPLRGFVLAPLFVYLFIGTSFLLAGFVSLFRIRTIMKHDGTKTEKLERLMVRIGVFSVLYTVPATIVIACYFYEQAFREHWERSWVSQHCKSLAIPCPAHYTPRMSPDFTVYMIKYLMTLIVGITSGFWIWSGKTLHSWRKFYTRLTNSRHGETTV
Assay [5] concerns the target T1, Frizzled-2. The experiment in a line: Antagonist activity at Wnt3a-stimulated frizzled-2 (unknown origin) expressed in human HEK293superTOP flash cells at 10 nM incubated for 24 hrs by luciferase reporter gene assay. Type of assay: functional, cell-based. As to conditions: HEK293.
Target sequence in this assay (Q14332 24-565 limits assumed): as above
Assay [6] addresses Frizzled-1 (Rattus norvegicus) (UniProt Q08463). The assay is described as follows: Antagonist activity at Wnt3a-stimulated rat frizzled-1 expressed in African green monkey COS7 cells up to 10 uM incubated for 24 hrs by luciferase reporter gene assay. In kind it is cell-based. The conditions noted are these: dose microM <=10, time 24.0 hrs.
Assay [7] has as its target Frizzled-2 (Rattus norvegicus) (UniProt Q08464). The assay is described as follows: Antagonist activity at Wnt3a-stimulated rat frizzled-2 expressed in African green monkey COS7 cells up to 10 uM incubated for 24 hrs by luciferase reporter gene assay. Type of assay: cell-based. The conditions noted are these: dose microM <=10, time 24.0 hrs.
In assay [8] the target is Frizzled-1 (Rattus norvegicus) (UniProt Q08463). The experiment in a line: Antagonist activity at Wnt3a-stimulated rat frizzled-1 expressed in CHO cells up to 10 uM incubated for 24 hrs by luciferase reporter gene assay. Type of assay: cell-based. As to conditions: dose microM <=10, time 24.0 hrs.
Sequence of Frizzled-1 (Rattus norvegicus) (Q08463 whole entry): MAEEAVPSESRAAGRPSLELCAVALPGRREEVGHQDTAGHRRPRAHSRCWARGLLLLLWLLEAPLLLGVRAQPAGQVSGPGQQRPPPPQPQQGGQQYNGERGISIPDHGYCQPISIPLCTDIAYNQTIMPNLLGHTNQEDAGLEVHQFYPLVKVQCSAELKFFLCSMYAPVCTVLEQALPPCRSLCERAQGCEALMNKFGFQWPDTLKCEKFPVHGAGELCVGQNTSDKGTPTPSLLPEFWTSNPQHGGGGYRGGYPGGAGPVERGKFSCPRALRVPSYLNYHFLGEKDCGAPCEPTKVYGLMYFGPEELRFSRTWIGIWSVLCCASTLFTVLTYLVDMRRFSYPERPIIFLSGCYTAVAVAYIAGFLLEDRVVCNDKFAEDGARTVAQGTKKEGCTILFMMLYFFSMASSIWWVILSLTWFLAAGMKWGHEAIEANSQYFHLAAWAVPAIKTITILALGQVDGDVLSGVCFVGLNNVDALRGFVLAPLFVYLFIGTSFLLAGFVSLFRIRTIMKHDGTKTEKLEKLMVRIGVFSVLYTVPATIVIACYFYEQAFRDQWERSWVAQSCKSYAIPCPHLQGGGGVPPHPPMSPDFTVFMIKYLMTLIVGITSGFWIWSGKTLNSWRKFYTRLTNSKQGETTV
For assay [9], the target named is Frizzled-1 (Homo sapiens) (UniProt Q9UP38). The assay is described as follows: Antagonist activity at Wnt3a-stimulated frizzled-1 (unknown origin) expressed in human HEK293superTOP flash cells at 10 nM incubated for 24 hrs by luciferase reporter gene assay. In kind it is functional, cell-based. The conditions noted are these: HEK293.
Assay [10] addresses Frizzled-2 (Rattus norvegicus) (UniProt Q08464). The assay is described as follows: Antagonist activity at Wnt3a-stimulated rat frizzled-2 expressed in CHO cells up to 10 uM incubated for 24 hrs by luciferase reporter gene assay. In kind it is cell-based. The conditions noted are these: dose microM <=10, time 24.0 hrs.
Assay [11] has the same target. The experiment in a line: Agonist activity at rat frizzled-2 expressed in CHO cells by luciferase reporter gene assay. In kind it is cell-based.
The target of assay [12] is Frizzled-1 (Rattus norvegicus) (UniProt Q08463). The assay is described as follows: Agonist activity at rat frizzled-1 expressed in human HEK293superTOP flash cells by luciferase reporter gene assay. Type of assay: cell-based. As to conditions: HEK293.
Assay [13] shares this target. The assay is described as follows: Agonist activity at rat frizzled-1 expressed in CHO cells by luciferase reporter gene assay. In kind it is cell-based.
Assay [14] concerns the target Frizzled-2 (Rattus norvegicus) (UniProt Q08464). The experiment in a line: Agonist activity at rat frizzled-2 expressed in African green monkey COS7 cells by luciferase reporter gene assay. Type of assay: cell-based.
Assay [15] shares this target. The assay is described as follows: Agonist activity at rat frizzled-2 expressed in human HEK293superTOP flash cells by luciferase reporter gene assay. As to conditions: HEK293. Type of assay: cell-based.
Assay [16] concerns the target Frizzled-1 (Rattus norvegicus) (UniProt Q08463). The assay is described as follows: Agonist activity at rat frizzled-1 expressed in African green monkey COS7 cells by luciferase reporter gene assay. In kind it is cell-based.

The structures appear in SMILES notation. Activity calls are given as the source filed them. The calls are words filed in the database; no cut-off is given here. Residues, ends and D or L forms follow the SMILES beside them.

Sequence of Frizzled-2 (Rattus norvegicus) (Q08464 29-570 limits assumed): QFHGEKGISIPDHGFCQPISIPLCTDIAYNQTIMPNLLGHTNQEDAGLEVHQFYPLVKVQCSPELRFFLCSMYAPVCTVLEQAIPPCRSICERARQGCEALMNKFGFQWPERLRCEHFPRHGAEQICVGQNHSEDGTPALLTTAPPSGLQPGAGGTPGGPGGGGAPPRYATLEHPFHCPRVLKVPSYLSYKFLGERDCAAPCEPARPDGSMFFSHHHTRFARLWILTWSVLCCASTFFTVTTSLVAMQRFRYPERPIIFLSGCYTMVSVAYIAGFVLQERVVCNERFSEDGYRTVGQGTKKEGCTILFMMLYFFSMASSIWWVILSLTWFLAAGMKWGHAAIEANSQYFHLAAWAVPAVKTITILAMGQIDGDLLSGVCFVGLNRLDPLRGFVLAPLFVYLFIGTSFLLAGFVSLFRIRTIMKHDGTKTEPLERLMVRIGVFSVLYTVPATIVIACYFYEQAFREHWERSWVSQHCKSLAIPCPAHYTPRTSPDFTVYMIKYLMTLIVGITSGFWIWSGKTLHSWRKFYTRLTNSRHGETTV

As for `CC(=O)N[C@@H](CS)C(=O)N[C@@H](CCCCN)C(=O)N[C@@H](CS)C(=O)N[C@@H](Cc1cnc[nH]1)C(=O)NCC(=O)N[C@H](C(=O)N[C@@H](CO)C(=O)NCC(=O)N[C@@H](CO)C(=O)N[C@@H](CS)C(=O)N[C@H](C(=O)N[C@H](C(=O)N[C@@H](CCCCN)C(=O)N[C@H](C(=O)N[C@@H](CS)C(=O)N[C@@H](Cc1c[nH]c2ccccc12)C(N)=O)[C@@H](C)O)C(C)C)[C@@H](C)O)C(C)C` (Ac-CKCHGVSGSCTVKTCW-NH2), the inhibition entry (in assay [1]; at Frizzled-2 [4]) was “inactive” throughout. Moreover, the EC50 result on Frizzled-2 [2] is “Not Active”. Further, the outcome in assay [3] was inactive.

`CSCC[C@H](NC(=O)CNC(=O)[C@H](CO)NC(=O)[C@H](CCCCN)NC(=O)[C@H](CC(N)=O)NC(=O)[C@H](CS)NC(C)=O)C(=O)N[C@@H](CC(=O)O)C(=O)NCC(=O)N[C@@H](CS)C(=O)N[C@@H](CCC(=O)O)C(=O)N[C@@H](CC(C)C)C(N)=O` (Ac-CNKSGMDGCEL-NH2): the inhibition entry (in [1]; at Frizzled-2 [4]) was “inactive” each time. Moreover, at Frizzled-2 [2], the EC50 entry is reported as “Not Active”. Further, in assay [3], the result was inactive.

Consider `CSCC[C@H](NC(=O)CNC(=O)[C@H](CCC(=O)O)NC(=O)[C@H](CO)NC(=O)[C@@H](NC(=O)[C@H](CCCCN)NC(=O)[C@H](CC(N)=O)NC(=O)[C@H](CS)NC(C)=O)[C@@H](C)O)C(=O)N[C@@H](CC(=O)O)C(=O)NCC(=O)N[C@@H](C)C(=O)N[C@@H](CCC(=O)O)C(=O)N[C@@H](CC(C)C)C(N)=O` (Ac-CNKTSEGMDGAEL-NH2), for which the inhibition entry (on Frizzled-2 [5]; in assay [6]; in assay [7]; in assay [8]; in assay [9]; in [10]) was “inactive” throughout.

With `CSCC[C@H](NC(=O)CNC(=O)[C@H](CCC(=O)O)NC(=O)[C@H](CO)NC(=O)[C@@H](NC(=O)[C@H](CCCCN)NC(=O)[C@H](CC(N)=O)NC(=O)[C@H](CS)NC(C)=O)[C@@H](C)O)C(=O)N[C@@H](CC(=O)O)C(=O)NCC(=O)N[C@@H](CS)C(=O)N[C@@H](C)C(=O)N[C@@H](C)C(N)=O` (Ac-CNKTSEGMDGCAA-NH2), the inhibition entry (at Frizzled-2 [5]; in assay [6]; in assay [7]; in assay [8]; in [9]; in [10]) was “inactive” each time.

With `CSCC[C@H](NC(=O)CNC(=O)[C@H](CCC(=O)O)NC(=O)[C@H](CO)NC(=O)[C@@H](NC(=O)[C@H](CCCCN)NC(=O)[C@H](CC(N)=O)NC(=O)[C@H](CS)NC(C)=O)[C@@H](C)O)C(=O)N[C@@H](CC(=O)O)C(=O)NCC(=O)N[C@@H](CS)C(=O)N[C@@H](C)C(=O)N[C@@H](CC(C)C)C(N)=O` (Ac-CNKTSEGMDGCAL-NH2), the inhibition result (on Frizzled-2 [5]; in [6]; in [7]; in assay [8]; in [9]; in assay [10]) was “inactive” in each case.

As to `CSCC[C@H](NC(=O)CNC(=O)[C@H](CCC(=O)O)NC(=O)[C@H](CO)NC(=O)[C@@H](NC(=O)[C@H](CCCCN)NC(=O)[C@H](CC(N)=O)NC(=O)[C@H](CS)NC(C)=O)[C@@H](C)O)C(=O)N[C@@H](CC(=O)O)C(=O)NCC(=O)N[C@@H](CS)C(=O)N[C@@H](CCC(=O)O)C(=O)N[C@@H](C)C(N)=O` (Ac-CNKTSEGMDGCEA-NH2), the inhibition entry (at Frizzled-2 [5]; in [6]; in assay [7]; in [8]; in assay [9]; in assay [10]) was “inactive” throughout.

In the case of `CC(=O)N[C@@H](CC(=O)O)C(=O)N[C@@H](CC(C)C)C(=O)N[C@H](C(=O)N[C@@H](Cc1ccc(O)cc1)C(=O)N[C@@H](Cc1ccccc1)C(=O)N[C@@H](CCC(=O)O)C(=O)N[C@@H](CC(C)C)C(=O)N[C@@H](CO)C(=O)N1CCC[C@H]1C(=O)N[C@@H](CC(=O)O)C(=O)N[C@@H](Cc1ccccc1)C(=O)N[C@@H](CS)C(=O)N[C@@H](C)C(N)=O)C(C)C` (Ac-DLVYFELSPDFCA-NH2), the inhibition result (in [1]; on Frizzled-2 [4]) was “inactive” throughout. Moreover, at Frizzled-2 [2], the EC50 entry is “Not Active”. Besides, the outcome in assay [3] was inactive.

For the compound `CC[C@H](C)[C@H](NC(=O)[C@H](CC(N)=O)NC(=O)[C@H](CC(=O)O)NC(=O)[C@H](CO)NC(=O)[C@H](CS)NC(=O)[C@H](CCC(=O)O)NC(=O)CNC(=O)[C@H](Cc1c[nH]c2ccccc12)NC(=O)[C@H](CCC(=O)O)NC(=O)[C@H](Cc1c[nH]c2ccccc12)NC(=O)[C@H](CC(=O)O)NC(=O)CNC(C)=O)C(N)=O` (Ac-GDWEWGECSDNI-NH2), the inhibition entry (in assay [1]; on Frizzled-2 [4]) was “inactive” each time. Further, the EC50 entry on Frizzled-2 [2] was “Not Active”. Also, in assay [3], the result was inactive.

With `CC[C@H](C)[C@H](NC(=O)CNC(C)=O)C(=O)N[C@@H](CCCCN)C(=O)N[C@@H](CCC(=O)O)C(=O)N[C@@H](CS)C(=O)N[C@@H](CCC(N)=O)C(=O)N[C@@H](Cc1ccc(O)cc1)C(=O)N[C@@H](CCC(N)=O)C(=O)N[C@@H](Cc1ccccc1)C(=O)N[C@@H](CCCNC(=N)N)C(=O)N[C@@H](Cc1c[nH]cn1)C(=O)N[C@@H](CCCNC(=N)N)C(=O)N[C@@H](CCCNC(=N)N)C(=O)N[C@@H](Cc1c[nH]c2ccccc12)C(=O)N[C@@H](CC(N)=O)C(=O)N[C@@H](CS)C(=O)N[C@@H](CO)C(=O)N[C@H](C(=O)N[C@H](C(=O)N[C@@H](CC(=O)O)C(N)=O)C(C)C)[C@@H](C)O` (Ac-GIKECQYQFRHRRWNCSTVD-NH2), the result in [11], in [12], in [13], in assay [14], in [15] and in assay [16] was inactive.

For the compound `CC(=O)NCC(=O)N[C@@H](CO)C(=O)N[C@@H](CCCCN)C(=O)NCC(=O)N[C@H](C(=O)N[C@@H](CCC(N)=O)C(=O)NCC(=O)N[C@@H](CCCNC(=N)N)C(=O)N[C@@H](C)C(=O)N[C@@H](CS)C(=O)N[C@@H](CC(N)=O)C(N)=O)[C@@H](C)O` (Ac-GSKGTQGRACN-NH2), the inhibition result (in assay [1]; at Frizzled-2 [4]) was “inactive” throughout. For the same compound, the EC50 result on Frizzled-2 [2] was “Not Active”. Further, in assay [3], the result was inactive.

For `CC[C@H](C)[C@H](NC(C)=O)C(=O)N[C@@H](CCC(=O)O)C(=O)N[C@@H](CCC(=O)O)C(=O)N[C@@H](CS)C(=O)N[C@@H](CCC(N)=O)C(=O)N[C@@H](Cc1cnc[nH]1)C(=O)N[C@@H](CCC(N)=O)C(=O)N[C@@H](Cc1ccccc1)C(=O)N[C@@H](CCCNC(=N)N)C(=O)N[C@@H](CC(=O)O)C(=O)N[C@@H](CCCNC(=N)N)C(=O)N[C@@H](CCCNC(=N)N)C(=O)N[C@@H](Cc1c[nH]c2ccccc12)C(=O)N[C@@H](CC(N)=O)C(=O)N[C@@H](CS)C(N)=O` (Ac-IEECQHQFRDRRWNC-NH2), the inhibition result (in [1]; at Frizzled-2 [4]) was “inactive” each time. For the same compound, the EC50 entry at Frizzled-2 [2] is listed as “Not Active”. Further, the outcome in assay [3] was inactive.

In the case of `CSCC[C@H](NC(C)=O)C(=O)N[C@@H](CC(N)=O)C(=O)N[C@@H](CCCNC(=N)N)C(=O)N[C@@H](Cc1cnc[nH]1)C(=O)N[C@@H](CC(N)=O)C(=O)N[C@@H](CC(N)=O)C(=O)N[C@@H](CCC(=O)O)C(=O)N[C@@H](C)C(=O)NCC(=O)N[C@@H](CCCNC(=N)N)C(N)=O` (Ac-MNRHNNEAGR-NH2), the inhibition result (in [1]; at Frizzled-2 [4]) was “inactive” in each case. Further, the EC50 result at Frizzled-2 [2] is reported as “Not Active”. Also, the outcome in assay [3] was inactive.

For the compound `CC[C@H](C)[C@H](NC(=O)CNC(=O)[C@H](Cc1cnc[nH]1)NC(=O)[C@H](CO)NC(=O)[C@H](CO)NC(=O)[C@@H](NC(=O)[C@H](CC(N)=O)NC(=O)[C@@H](N)CS)C(C)C)C(=O)N[C@@H](CC(=O)O)C(=O)NCC(=O)N[C@@H](CS)C(=O)N[C@@H](CC(=O)O)C(=O)N[C@@H](CC(C)C)C(=O)O` (H-CNVSSHGIDGCDL-OH), the inhibition entry (at Frizzled-2 [5]; in [6]; in assay [7]; in assay [8]; in assay [9]; in assay [10]) was “inactive” each time.
